First: Cc1cccc(Cl)c1NS(=O)(=O)c1n[nH]c(N)n1
Second: Cc1n[nH]c2ccccc12
The melting point of the first is higher: 217 °C for the first, 110 to 113 °C for the second.

First: N#Cc1cnn2c1NCC=C2c1cccc(C(F)(F)F)c1
Second: N#Cc1ccc(NC2CCN(Cc3cccc(C(F)(F)F)c3)CC2)nc1
The melting point of the first is higher: 175 to 177 °C for the first, 112 °C for the second.

First: CC(C)(C)OC(=O)N1CCN2C(=O)N(c3cc(Cl)cc(Cl)c3)C(=O)C2C1 (stereo unspecified)
Second: CC(C)(C)OC(=O)N1CCN(c2ccc(S(=O)(=O)c3ccccc3)c([N+](=O)[O-])c2)CC1
The melting point of the first is lower: 60.2 °C for the first, 190 to 191 °C for the second.

First: Cn1nnc(-c2ccc(OCC(O)CNCCOc3ccc(O)c(C(N)=O)c3)cc2)n1 (stereo unspecified)
Second: COC(=O)c1cccc(-c2ncc(OCCCN(C)C)cn2)c1
The melting point of the first is higher: 174 to 175 °C for the first, 66 °C for the second.

Compared with CCOC(=O)c1cc(NC(=O)C(Cc2ccccc2)NC(=O)OC(C)(C)C)c[nH]1 (stereo unspecified), CCOC(=O)C(CCc1ccccc1)NC(CCCCNC(=O)CNC(=O)OC(C)(C)C)C(=O)O (stereo unspecified) is lower in melting point: 148 to 151 °C for the first, 137 °C for the second.

First: O=C(O)c1c[nH]c(=S)n1C1CCc2c(F)cc(F)cc2C1 (stereo unspecified)
Second: CN1C2CCCC1CC(NC(=O)c1cccc3nc(-c4ccc(F)cc4)oc13)C2 (stereo unspecified)
The melting point of the first is higher: 250 to 252 °C for the first, 229 to 231 °C for the second.

First: CCOC(=O)c1ccc(-n2ccnc2C)cc1
Second: Cc1ccc(-c2ccc(S(C)(=O)=O)cc2)n1-c1ccc(-c2nccs2)cc1
The melting point of the first is lower: 72 to 73 °C for the first, 190 to 191 °C for the second.

First: CCOCCOc1ccc2c(c1)C(N(CC)S(C)(=O)=O)CC(C)(C)O2 (stereo unspecified)
Second: OC1CN(CCCOCCc2ccc3sccc3c2)C1
The melting point of the first is higher: 73 to 75 °C for the first, 60 to 62 °C for the second.

First: OC(CCc1cccnc1)COc1ccc(C=Cc2ccccc2)cc1 (stereo unspecified)
Second: O=C(OCc1ccccc1)[C@@H](Cc1ccccc1)NS(=O)(=O)c1ccc2ccccc2c1
The melting point of the first is higher: 110 to 111 °C for the first, 107 °C for the second.

First: COc1cc(C=CC#N)cc(OC)c1
Second: COc1ccc2c(c1)C13CCN(C)C(C2)C1OCOC3 (stereo unspecified)
The melting point of the first is lower: 126 °C for the first, 134 to 135 °C for the second.

Compared with COc1ccc(C2CC(n3ccnc3)c3ccccc3N2)cc1 (stereo unspecified), CC1NC2(c3ccccc3)c3ccccc3C(=O)N2C1C (stereo unspecified) is higher in melting point: 156 to 158 °C for the first, 162 to 164 °C for the second.

Compared with CSc1c(C(=O)O)ccc(C)c1C, C=CCn1nc(C)c(C(=O)c2ccc(Cl)cc2Cl)c1O is higher in melting point: 118 to 120 °C for the first, 161 to 163 °C for the second.

First: CN(C)C1(c2ccccc2)CCC2(OCCc3c2[nH]c2ccc(F)cc32)C(Cc2cccc(F)c2)C1 (stereo unspecified)
Second: Oc1ncccc1C1(O)CCN(CC23CC(c4ccccc42)c2ccccc23)CC1
The melting point of the first is lower: 133 to 135 °C for the first, 195 to 199 °C for the second.

Compared with CCCCOC(=O)COc1cc(F)ccc1C(=O)NCc1cccc([N+](=O)[O-])c1, COc1ccc(C(=O)Cc2c(Cl)cncc2Cl)c2c(CC(=O)NCc3ccccc3)coc12 is higher in melting point: 80 to 81 °C for the first, 244 to 246 °C for the second.

First: CC(C)c1nc(C(C)(C)C)cc(-c2ccc(F)cc2)c1CO
Second: CS(=O)(=O)c1cccc(NC(=O)c2cnn3ccc(-c4ccc(C(F)(F)F)cc4)nc23)c1
The melting point of the first is lower: 112 to 113 °C for the first, 254 to 255 °C for the second.

First: Cc1nnn(CC(I)=C(I)I)n1
Second: Cc1ccc(S(=O)(=O)n2c(CCCC(=O)O)cc3nc(Cl)ccc32)c(Cl)c1
The melting point of the first is lower: 111 °C for the first, 168 to 169 °C for the second.

First: CCOC(=O)C(=O)N1Cc2cc(OC)ccc2C(Cc2c(Cl)cncc2Cl)=N1
Second: CCOC(=O)C(OC(C)=O)c1ccc(-c2ccc(-c3ccccc3)cc2)o1 (stereo unspecified)
The melting point of the first is higher: 140 to 142 °C for the first, 136 to 140 °C for the second.

First: CCCCCCCCCCCCCCCCCCOC(=O)Nc1ccc(NC(=O)NS(=O)(=O)c2ccc(OC)cc2)cc1
Second: Cc1ccc(-c2ccc(S(C)(=O)=O)cc2)n1-c1ccc(-c2ccsc2)cc1
The melting point of the first is higher: 190 °C for the first, 187 to 188 °C for the second.

Compared with CC12CCCC(C1)OC2=O (stereo unspecified), CC1(C)OC(=O)N=C1c1ccccc1 is higher in melting point: 37 to 38 °C for the first, 106 to 108 °C for the second.

First: NC(=O)N1CC(Oc2cccc(Br)c2)C1
Second: CC(=O)N[C@@H](C(=O)Oc1ccccc1)C(C)(C)SN=O
The melting point of the first is higher: 188 to 189 °C for the first, 120 °C for the second.

First: COc1ccc(C(C)C)cc1-c1cc(C(=O)OCc2ccccc2)c(OCc2ccccc2)cc1OCc1ccccc1
Second: CCCCc1ccc(CCc2cc3c(s2)-n2c(C)nnc2CN=C3c2ccccc2Cl)cc1
The melting point of the first is higher: 139 to 141 °C for the first, 119 to 121 °C for the second.

First: COc1cc(C(=O)N(C2CCCC2)C2CCCC2)ccc1Cn1cccc2ncnc1-2
Second: COc1cc(N)c(Cl)cc1C(=O)NC1CCN(CC2CCCCC2)CC1C (stereo unspecified)
The melting point of the first is higher: 223 to 224 °C for the first, 173 to 176 °C for the second.

Compared with OC(COc1ccccc1Cl)(Cn1cncn1)Cn1cncn1, O=C(Cn1c(-c2cccc(Cl)c2)nc2cccnc21)Nc1ccccn1 is higher in melting point: 95 °C for the first, 165 to 166 °C for the second.

First: CCOC(=O)N1CCC2(CC1)OC(c1ccccc1)c1ccccc12 (stereo unspecified)
Second: Oc1cccc2c1Oc1ccccc1C21CCN(CC=CCl)CC1
The melting point of the first is lower: 115 to 119 °C for the first, 153 to 155 °C for the second.

First: O=C(Nc1ccc(-n2nc(C(F)(F)F)cc2C(F)(F)F)cn1)c1ccccc1F
Second: O=S(=O)(c1ccc(Cl)cc1)C1(c2cccnc2Cl)CCCCC1
The melting point of the first is higher: 153 to 155 °C for the first, 129 to 131 °C for the second.

In the case of O=C1N=NC(=O)c2c1[nH]c1cc(Cl)ccc21, the melting point is reported as > 250 °C.

From a melting point compilation (Tetko et al.; mined from patent text by program, amines drawn as free bases though some values may be those of a salt)
